Tests used:
Assay type in all cases: cell-based, human
[1] = system: H292 cells; test: Immunoprecipitation of β-catenin–ubiquitin complex; conditions: H292, 50 nM, compared to cells treated with RT
Method: (§1) The DH_32-treated A549, H23, and H292 cells were collected using cold PBS and incubated on ice in a lysis buffer. This buffer consisted of 50 mM 4-(2-hydroxyethyl)-1-piperazineethanesulfonic acid at pH 7.5, 150 mM NaCl, 5 mM EDTA, 1% Triton X-100, 1 mM phenylmethylsulfonyl fluoride, and 2 μg/mL pepstatin A (catalog no: 9803, Cell Signaling), along with complete protease inhibitor cocktail tablets from the EASYpack (Roche, catalog no: 04693116001). The incubation took place for 40 min on ice, followed by centrifugation at 12,000× g at 4 °C for 15 min.
(§2) Subsequently, immunoprecipitation was carried out using the Dynabeads™ Protein G Immunoprecipitation Kit from Thermo Fisher Scientific Inc. (Waltham, MA, USA). The magnetic beads were prepared and added to 100 μL of Ab binding and washing buffer that contained β-catenin (2 μL) for 15 min on rotation at room temperature. The complex of magnetic beads and antibodies was re-suspended in a protein lysis buffer and left to incubate at 4 °C overnight, facilitating the binding of the β-catenin antigen with the magnetic bead–antibody complex. The magnetic bead–Ab–Ag complex was washed three times using 200 μL of washing buffer. The magnetic bead–antibody–antigen complex was resuspended in the lysis buffer (30 μL), and the 6x sample buffer (5 μL) was denatured by heating at 95 °C for 5 min. The antigen–antibody complex was loaded onto a 12% sodium dodecyl sulfate polyacrylamide gel electrophoresis (SDS-PAGE). Following gel separation, the proteins were transferred onto a nitrocellulose membrane with a pore size of 0.45 μm. After transfer, the membrane was placed in a mixture containing 5% nonfat dry milk in TBST (composed of 25 mm Tris-HCl, pH 7.4, 125 mm NaCl, and 0.05% Tween 20) for a duration of 1 h 30 min. Following this, the proteins were exposed to primary antibodies (Cell Signaling), specifically ubiquitin mouse mAb (cat no: 14049), and left to incubate overnight at 4 °C. […] Protein intensity was analyzed by using ImageJ software (Image J 1.52a, Rasband, W., National Institutes of Health, USA). […]

[2] = system: H23 cells; test: Immunoprecipitation of β-catenin–ubiquitin complex; conditions: H23, 50 nM, compared to cells treated with RT
Method: as §1, §2

[3] = system: A549 cells; test: Immunoprecipitation of β-catenin–ubiquitin complex; conditions: A549, 50 nM, compared to cells treated with RT
Method: as §1, §2

[4] = system: H292 cells; test: Western blot of apoptosis-related proteins (cleaved PARP, Bcl-2, Bax)
Method: (§3) The protein expression levels in NSCLC cells were assessed through Western blot analysis. A549, H23, and H292 cells were seeded at a density of 4 × 10^5 cells per well in 6-well cell culture plates. These cells were subjected to treatments with DH_32 at concentrations of 0, 25, 50, and 100 nM for 24 h at 37 °C.
(§4) Following treatment, the cells were collected using cold PBS and incubated on ice with a lysis buffer. The lysis buffer contained 50 mM 4-(2-hydroxyethyl)-1-piperazineethanesulfonic acid (pH 7.5), 150 mM NaCl, 5 mM EDTA, 1% Triton X-100, 1 mM phenylmethylsufonyl fluoride, and 2 μg/mL pepstatin A (cat no: 9803, Cell Signaling), along with complete protease inhibitor cocktail tablets provided in EASYpack (Roche, cat no: 04693116001). The incubation occurred for 40 min on ice, followed by centrifugation at 12,000× g at 4 °C for 15 min. Cell lysates were collected, and the protein content was quantified using the bicinchoninic acid (BCA) protein kit from Thermo-Fisher Scientific, Rockford, IL, USA. The sample was denatured by heating at 95 °C for 5 min with a sample buffer. The protein was loaded onto a 10% sodium dodecyl sulfate polyacrylamide gel electrophoresis (SDS-PAGE). Following gel separation, the proteins were transferred onto a nitrocellulose membrane with a pore size of 0.45 μm. The membranes were incubated with 5% nonfat dry milk in TBST (25 mm Tris-HCl, pH 7.4, 125 mm NaCl, and 0.05% Tween 20) for 1 h 30 min. Following this, the membrane was exposed to primary antibodies (Cell Signaling) including rabbit PARP, BcL2, Bax, CD133, CD44, OCT4, ALDH1A1, and β-catenin, and incubated at 4 °C overnight. Rabbit β-actin served as the control for loading normalization. The primary antibodies were diluted to 1:1000 in 5% w/v BSA in TBST. The membranes were washed with TBST and were then exposed to horseradish-peroxidase (HRP)-conjugated isotype-specific secondary antibodies, as well as anti-rabbit and anti-mouse IgG (1:2000 in 5% w/v skim milk in TBST), for 1 h at RT. Membranes were washed again with TBST. A chemiluminescent substrate (Supersignal West Pico; Pierce, Rockford, IL, USA) was applied to detect complex reactivity, and the signal intensity was quantified through densitometry. Protein intensity was analyzed by using ImageJ software (Image J 1.52a, Rasband, W., National Institutes of Health, Bethesda, MD, USA). RT acted as the positive control for this experiment.

[5] = system: H23 cells; test: as above
Method: as §3, §4

[6] = system: A549 cells; test: as above
Method: as §3, §4

[7] = system: β-catenin in A549, H23, and H292 cells; test: Western blot of β-catenin; conditions: 0–100 nM, 24 h
Method: as §3
Following treatment, the cells were collected using cold PBS and incubated on ice with a lysis buffer. The lysis buffer contained 50 mM 4-(2-hydroxyethyl)-1-piperazineethanesulfonic acid (pH 7.5), 150 mM NaCl, 5 mM EDTA, 1% Triton X-100, 1 mM phenylmethylsufonyl fluoride, and 2 μg/mL pepstatin A (cat no: 9803, Cell Signaling), along with complete protease inhibitor cocktail tablets provided in EASYpack (Roche, cat no: 04693116001). The incubation occurred for 40 min on ice, followed by centrifugation at 12,000× g at 4 °C for 15 min. Cell lysates were collected, and the protein content was quantified using the bicinchoninic acid (BCA) protein kit from Thermo-Fisher Scientific, Rockford, IL, USA. […] A chemiluminescent substrate (Supersignal West Pico; Pierce, Rockford, IL, USA) was applied to detect complex reactivity, and the signal intensity was quantified through densitometry. Protein intensity was analyzed by using ImageJ software (Image J 1.52a, Rasband, W., National Institutes of Health, Bethesda, MD, USA). […]

## COC1=C(C)C(=O)C2=C(C1=O)[C@@H]1CN(Cc3ccc4ccccc4c3)[C@@H](C#N)[C@H](C2)N1C [DH_32, (1R,4R,5S)-9-methoxy-8,11-dimethyl-3-(naphthalen-2-ylmethyl)-7,10-dioxo-1,2,3,4,5,6,7,10-octahydro-1,5-epiminobenzo[d]azocine-4-carbonitrile]
[1]
  increase in level of β-catenin–ubiquitin complex: 3.5 fold
[2]
  increase in level of β-catenin–ubiquitin complex: two-fold increase
[3]
  increase in level of β-catenin–ubiquitin complex: 2.5 fold
[4]; H292, 0–100 nM, 24 h
  anti-apoptotic Bcl-2 protein level: significant reduction in a dose-dependent manner
[4]; H292, 50 nM, 24 h
  cleaved PARP level: substantial increase
[4]; H292, 24 h
  pro-apoptotic protein Bax level: remained unaltered
[5]; H23, 0–100 nM, 24 h
  anti-apoptotic Bcl-2 protein level: significant reduction in a dose-dependent manner
[5]; H23, 50 nM, 24 h
  cleaved PARP level: substantial increase
[5]; H23, 24 h
  pro-apoptotic protein Bax level: remained unaltered
[6]; A549, 0–100 nM, 24 h
  anti-apoptotic Bcl-2 protein level: significant reduction in a dose-dependent manner
[6]; A549, 50 nM, 24 h, compared to the RT treatment
  cleaved PARP level: six-fold increase
[6]; A549, 24 h, compared to the parent compound
  pro-apoptotic protein Bax level: two-fold increase
[7]
  β-catenin protein level by Western blot: significant decrease in the β-catenin protein level
